The values that follow come from publication PMC7890489, “Study on pharmacological properties and cell absorption metabolism of novel daidzein napsylates” (Royal Society Open Science, 2021).

For this series, the system named is vascular smooth muscle cells. Put plainly: Cytotoxicity by MTT assay. Type of series: cell-based. To be noted: 300 ug/mL. From the text: […] 2) Please list the full name of “HAVSMCs”at the first time it appears.
We have listed the full name of “HAVSMCs” as its first appearance in the abstract of […]
[…] 3) Please number the carbon atoms of the compounds.
[…] 4) Line 19-36: The abstract can reflect all aspects of the work, but it is a bit long and too detailed. The authors should rephrase the abstract for a more concise […]
We have rewritten the section of abstract and tried to make it as concise as possible.
[…] 5) As far as I'm aware, daidzein as a biologically active natural product has been used for curing angiocardiopathy. But whether the synthesized daidzeinnapsylates have significant toxic side effects remain unknown. So, in vitro cytotoxicity […]
A549, HeLa cells) need be performed.
The cytotoxicity of DD4 and DD5 was determined by MTT assay in our lab before […]
the two compounds was less than 10% at the concentration of 300 ug/mL. It is considered that the compound is not toxic to vascular smooth muscle cells at this concentration. Therefore, the dosing concentrations of DD4 and DD5 were 171 and 120 ug/mL, respectively, to investigate the absorption and metabolism of drugs by […]
6)Please attach the 1H-NMR specturm of DD4 and DD5 in supporting information;

`CCOc1ccc2c(=O)c(-c3ccc(OS(=O)(=O)c4ccc5ccccc5c4)cc3)coc2c1` [DD5]: the cell inhibition rate entry is reported as “less than 10%”.
